From US20260217687A1 (NeoPhore Limited, priority 2023, published 2026)

target: T1, recombinant N-terminal MLH1 (residues 15-340) (Homo sapiens, UniProt P40692); test: Fluorescence Polarisation Assay for MLH1; type: binding; conditions: 100 nM N-terminal MLH1, 5 nM probe compound
T1 construct: recombinant N-terminal MLH1 (residues 15-340)
T1 sequence (P40692 15-340): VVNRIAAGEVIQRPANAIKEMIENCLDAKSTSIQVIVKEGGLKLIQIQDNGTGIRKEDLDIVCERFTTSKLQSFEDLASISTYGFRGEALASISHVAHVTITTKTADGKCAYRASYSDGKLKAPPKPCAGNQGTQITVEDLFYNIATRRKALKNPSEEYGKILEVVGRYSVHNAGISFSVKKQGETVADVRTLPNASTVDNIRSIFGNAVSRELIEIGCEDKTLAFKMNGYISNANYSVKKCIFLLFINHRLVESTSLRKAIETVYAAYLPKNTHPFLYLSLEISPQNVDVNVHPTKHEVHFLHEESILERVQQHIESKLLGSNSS
In short: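 Fluorescence polarisation displacement: 100 nM MLH1 (15-340) preincubated 30 min at room temperature with compound, then 5 nM rhodamine-labelled probe added and read immediately. Buffer 25 mM HEPES pH 7.5, 250 mM NaCl, 10 mM MgCl2, 0.01% Triton X-100, 5 mM DTT; normalised to no-inhibitor and no-enzyme controls.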

Structure (SMILES)	IC50 [µM]
CN1CCC(Oc2cc3c(c(N[C@@H]4CCOC4)c2)CN(C(=O)c2c(O)cc(C(F)F)cc2OCc2ccccc2)C3)CC1 [Example 4.63, (R)-(2-(Benzyloxy)-4-(difluoromethyl)-6-hydroxyphenyl)(6-((1-methylpiperidin-4-yl)oxy)-4-((tetrahydrofuran-3-yl)amino)isoindolin-2-yl)methanone]	0.1 to 1
O=C(c1c(O)cc(C(F)F)cc1OCc1ccccc1)N1Cc2cccc(OC3CCOC3)c2C1 (stereo not shown) [Example 4.79, (2-(Benzyloxy)-4-(difluoromethyl)-6-hydroxyphenyl)(4-((tetrahydrofuran-3-yl)oxy)isoindolin-2-yl)methanone]	1 to 10
O=C(c1c(O)cc(C(F)F)cc1OCc1ccccc1)N1CCc2ccc(N[C@H]3CCOC3)cc21 (single isomer, unassigned) [Example 27.2b, (S)-(2-(Benzyloxy)-4-(difluoromethyl)-6-hydroxyphenyl)(6-((tetrahydrofuran-3-yl)amino)indolin-1-yl)methanone or (R)-(2-(benzyloxy)-4-(difluoromethyl)-6-hydroxyphenyl)(6-((tetrahydrofuran-3-yl)amino)indolin-1-yl)methanone]	0.1 to 1
COc1ccc2c(c1)CCN(C(=O)c1c(O)cc(C(F)F)cc1OCc1ccccc1)C2 [Example 4.39, (2-(Benzyloxy)-4-(difluoromethyl)-6-hydroxyphenyl)(6-methoxy-3,4-dihydroisoquinolin-2(1H)-yl)methanone]	1 to 10
COc1ccc2c(c1)CN(C(=O)c1c(O)cc(C#N)cc1OCc1ccccc1)C2 [Example 13, 3-(Benzyloxy)-5-hydroxy-4-(5-methoxyisoindoline-2-carbonyl)benzonitrile]	1 to 10
O=C(c1c(O)cc(C(F)F)cc1OCc1ccccc1)N1Cc2ccccc2C1 [Example 4.54, (2-(Benzyloxy)-4-(difluoromethyl)-6-hydroxyphenyl)(isoindolin-2-yl)methanone]	1 to 10
Cn1cnc(-c2cc3c(c(N[C@H]4CCOC4)c2)CN(C(=O)c2c(O)cc(C(F)F)cc2OCc2ccccc2)C3)c1 [Example 4.25, (S)-(2-(Benzyloxy)-4-(difluoromethyl)-6-hydroxyphenyl)(6-(1-methyl-1H-imidazol-4-yl)-4-((tetrahydrofuran-3-yl)amino)isoindolin-2-yl)methanone]	0.1 to 1
CN(C)CCOc1cc2c(c(N[C@@H]3CCOC3)c1)CN(C(=O)c1c(O)cc(C(F)F)cc1OCc1ccccc1)C2 [Example 4.75, (R)-(2-(Benzyloxy)-4-(difluoromethyl)-6-hydroxyphenyl) (6-(2-(dimethylamino)ethoxy)-4-((tetrahydrofuran-3-yl)amino)isoindolin-2-yl)methanone]	< 0.1
O=C(c1c(O)cc(C(F)F)cc1OCc1ccccc1)N1Cc2ccc(OCCN3CCOCC3)cc2C1 [Example 4.70, (2-(Benzyloxy)-4-(difluoromethyl)-6-hydroxyphenyl) (5-(2-morpholinoethoxy)isoindolin-2-yl) methanone]	0.1 to 1
O=C(c1c(O)cc(C(F)F)cc1OCc1ccccc1)N1CCc2ccc(NC3CCOC3)cc21 (single isomer, unassigned) [Example 27.2a, (S)-(2-(Benzyloxy)-4-(difluoromethyl)-6-hydroxyphenyl)(6-((tetrahydrofuran-3-yl)amino)indolin-1-yl)methanone or (R)-(2-(Benzyloxy)-4-(difluoromethyl)-6-hydroxyphenyl)(6-((tetrahydrofuran-3-yl)amino)indolin-1-yl)methanone]	0.1 to 1
COc1cc2c(c(N[C@H]3CCOC3)c1)CN(C(=O)c1c(O)cc(C(F)F)cc1OCc1ccccc1)CC2 [Example 4.20, (S)-(2-(Benzyloxy)-4-(difluoromethyl)-6-hydroxyphenyl)(6-methoxy-8-((tetrahydrofuran-3-yl)amino)-3,4-dihydroisoquinolin-2(1H)-yl)methanone]	0.1 to 1
CN1CCC(Oc2ccc3c(c2)CN(C(=O)c2c(O)cc(C(F)F)cc2OCc2ccccn2)C3)CC1 [Example 4.58, (4-(Difluoromethyl)-2-hydroxy-6-(pyridin-2-ylmethoxy)phenyl)(5-((1-methylpiperidin-4-yl)oxy)isoindolin-2-yl)methanone]	0.1 to 1
O=C(c1c(O)cc(C(F)F)cc1OCc1ccccc1)N1Cc2cccc(N[C@H]3CCOC3)c2C1 [Example 4, (S)-(2-(Benzyloxy)-4-(difluoromethyl)-6-hydroxyphenyl)(4-((tetrahydrofuran-3-yl)amino)isoindolin-2-yl)methanone]	0.1 to 1
Cn1cncc1-c1cc2c(c(N[C@H]3CCOC3)c1)CN(C(=O)c1c(O)cc(C(F)F)cc1OCc1ccccc1)C2 [Example 4.24, (S)-(2-(Benzyloxy)-4-(difluoromethyl)-6-hydroxyphenyl)(6-(1-methyl-1H-imidazol-5-yl)-4-((tetrahydrofuran-3-yl)amino)isoindolin-2-yl)methanone]	0.1 to 1
O=C(c1c(O)cc(C(F)F)cc1OCc1ccccc1)N1CCc2cc(Cn3ccnc3)ccc2C1 [Example 4.49, (6-((1H-Imidazol-1-yl)methyl)-3,4-dihydroisoquinolin-2(1H)-yl)(2-(benzyloxy)-4-(difluoromethyl)-6-hydroxyphenyl)methanone]	0.1 to 1
CN1CCN(Cc2ccc3c(c2)CN(C(=O)c2c(O)cc(C(F)F)cc2OCc2ccccc2)CC3)CC1 [Example 4.46, (2-(Benzyloxy)-4-(difluoromethyl)-6-hydroxyphenyl)(7-((4-methylpiperazin-1-yl)methyl)-3,4-dihydroisoquinolin-2(1H)-yl)methanone]	0.1 to 1
COCCNc1cccc2c1CN(C(=O)c1c(O)cc(C(F)F)cc1OCc1ccccc1)C2 [Example 4.28, (2-(Benzyloxy)-4-(difluoromethyl)-6-hydroxyphenyl) (4-((2-methoxyethyl)amino)isoindolin-2-yl)methanone]	0.1 to 1
CN(C)CCOc1cc2c(c(N[C@@H]3CCOC3)c1)CN(C(=O)c1c(O)cc(C#N)cc1OCc1ccccc1)C2 [Example 18, (R)-3-(Benzyloxy)-4-(6-(2-(dimethylamino)ethoxy)-4-((tetrahydrofuran-3-yl)amino)isoindoline-2-carbonyl)-5-hydroxybenzonitrile]	0.1 to 1

Results, then the compound that gave them:

IC50 [µM]	Structure (SMILES)
0.1 to 1	O=C(c1c(O)cc(C(F)F)cc1OCc1ccc2ccncc2c1)N1CCc2cccc(N[C@H]3CCOC3)c2C1 [Example 28.3, (S)-(4-(Difluoromethyl)-2-hydroxy-6-(isoquinolin-7-ylmethoxy)phenyl)(8-((tetrahydrofuran-3-yl)amino)-3,4-dihydroisoquinolin-2(1H)-yl)methanone]
1 to 10	O=C(c1c(O)cc(C(F)F)cc1OCc1ccccc1)N1CCc2cnccc21 [Example 27.21, (2-(Benzyloxy)-4-(difluoromethyl)-6-hydroxyphenyl)(2,3-dihydro-1H-pyrrolo[3,2-c]pyridin-1-yl)methanone]
0.1 to 1	CC(=O)N1CCC[C@H](Nc2cccc3c2CN(C(=O)c2c(O)cc(C#N)cc2OCc2ccccc2)C3)C1 [Example 10.18, (S)-4-(4-((1-Acetylpiperidin-3-yl)amino)isoindoline-2-carbonyl)-3-(benzyloxy)-5-hydroxybenzonitrile]
1 to 10	N#Cc1cc(O)c(C(=O)N2Cc3cccc(NCC4CCOC4)c3C2)c(OCc2ccccc2)c1 (stereo not shown) [Example 10.10, 3-(Benzyloxy)-5-hydroxy-4-(4-(((tetrahydrofuran-3-yl)methyl)amino)isoindoline-2-carbonyl)benzonitrile]
1 to 10	N#Cc1cc(O)c(C(=O)N2Cc3cccc(N[C@H]4CCOC4)c3C2)c(OCC2CC2)c1 [Example 12.2, (S)-3-(Cyclopropylmethoxy)-5-hydroxy-4-(4-((tetrahydrofuran-3-yl)amino)isoindoline-2-carbonyl)benzonitrile]
1 to 10	CN(C)CCOc1ccc2c(c1)CCN(C(=O)c1c(O)cc(Cl)cc1OCc1ccccc1)C2 [Example 10.22, (2-(Benzyloxy)-4-chloro-6-hydroxyphenyl)(6-(2-(dimethylamino)ethoxy)-3,4-dihydroisoquinolin-2(1H)-yl)methanone]
1 to 10	O=C(c1c(O)cc(C(F)F)cc1OCc1ccccc1)N1CCc2ncccc21 [Example 27.22, (2-(Benzyloxy)-4-(difluoromethyl)-6-hydroxyphenyl)(2,3-dihydro-1H-pyrrolo[3,2-b]pyridin-1-yl)methanone]
0.1 to 1	CN1C[C@H](Nc2cccc3c2CN(C(=O)c2c(O)cc(C#N)cc2OCc2ccccc2)C3)CC1=O (single isomer, unassigned) [Example 10.8, (R)-3-(Benzyloxy)-5-hydroxy-4-(4-((1-methyl-5-oxopyrrolidin-3-yl)amino)isoindoline-2-carbonyl)benzonitrile or (S)-3-(benzyloxy)-5-hydroxy-4-(4-((1-methyl-5-oxopyrrolidin-3-yl)amino)isoindoline-2-carbonyl)benzonitrile]
0.1 to 1	CN1CC[C@@H](Nc2cccc3c2CN(C(=O)c2c(O)cc(C#N)cc2OCc2ccccc2)C3)C1=O [Example 10.28, (R)-3-(benzyloxy)-5-hydroxy-4-(4-((1-methyl-2-oxopyrrolidin-3-yl)amino)isoindoline-2-carbonyl)benzonitrile]
1 to 10	O=C(c1c(O)cc(C(F)F)cc1OCc1ccccc1)N1CCc2cccnc21 [Example 27.15, (2-(Benzyloxy)-4-(difluoromethyl)-6-hydroxyphenyl)(2,3-dihydro-1H-pyrrolo[2,3-b]pyridin-1-yl)methanone]
